Assay results reported in patent publication US10034886B2, “GLP-1 receptor modulators” (Celgene International II SÀRL, priority 2014, dated 2018).

target: T1, GLP-1R (Homo sapiens, UniProt P43220); assay: EC20 GLP-1(9-36) PAM cAMP assay: dose response of compound in the presence of fixed concentration of GLP-1(9-36); type: cell-based; conditions: GLP-1R CRE-bla CHO-K1 cells, compound dose response with fixed concentration of GLP-1(9-36), read-out: EC20 GLP-1(9-36) PAM EC50
T1 construct: host or cells: GLP-1R CRE-bla CHO-K1 cells
In short: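 Positive allosteric modulation read as cAMP accumulation: compound titrations (12 points) combined with an EC20 level of GLP-1(9-36) on CHO-K1 GLP-1R CRE-bla cells, IBMX present, 30 min, 37 °C, pH 7.4 buffer. Luminescence converted to cAMP via standards; non-linear fit gave EC50 and Emax.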

T1 sequence (P43220 24-463): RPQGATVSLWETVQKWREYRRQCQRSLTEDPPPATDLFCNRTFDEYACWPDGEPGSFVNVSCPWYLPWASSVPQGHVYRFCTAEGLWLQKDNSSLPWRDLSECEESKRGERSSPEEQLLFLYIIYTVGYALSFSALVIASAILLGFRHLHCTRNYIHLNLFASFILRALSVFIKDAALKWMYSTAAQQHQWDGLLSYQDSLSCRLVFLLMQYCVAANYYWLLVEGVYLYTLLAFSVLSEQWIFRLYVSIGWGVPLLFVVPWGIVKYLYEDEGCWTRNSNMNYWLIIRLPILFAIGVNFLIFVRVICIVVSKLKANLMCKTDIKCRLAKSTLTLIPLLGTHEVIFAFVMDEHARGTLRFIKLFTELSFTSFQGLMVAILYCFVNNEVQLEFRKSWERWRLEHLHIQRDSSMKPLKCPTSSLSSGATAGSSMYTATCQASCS
T1 sequence (P01275 100-127 partner limits assumed): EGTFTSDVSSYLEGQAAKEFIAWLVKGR

EC50 [nM]	Structure (SMILES)
800 to 2500	CC(C)(C)c1ccc(C(=O)NC(Cc2ccc(-c3ncc(N4CCC(c5cccc(F)c5)CC4)cn3)cc2)C(=O)N2CC(C(=O)O)C2)s1 (stereo not shown) [Compound 1484]
< 800	C[C@@H](NC(=O)[C@H](Cc1ccc(-c2ncc(-c3ccc(C4CCCCC4)cc3)cn2)cc1)NC(=O)c1ccc(C(C)(C)C)s1)C(=O)O [Compound 1282]
< 800	Cc1ccc(-c2ccc(-c3cnc(-c4ccc(C[C@H](NC(=O)c5ccc(C(C)(C)C)s5)C(=O)N5CC(C(=O)O)C5)cc4)nc3)c(F)c2)cc1 [Compound 1207]
800 to 2500	COc1cc(C(=O)N[C@@H](Cc2ccc(-c3ncc(-c4ccc(OCCCC(C)C)cc4)cn3)cc2)C(=O)N2CC(C(=O)O)C2)ccc1C(C)(C)C [Compound 1239]
< 800	CCC[C@H]1CC[C@H](C2CCN(c3cnc(-c4ccc(C[C@H](NC(=O)c5ccc(C(C)(C)C)s5)C(=O)N5CC(c6nn[nH]n6)C5)cc4)nc3)CC2)CC1 [Compound 1442]
< 800	C[C@@H](NC(=O)[C@H](Cc1ccc(-c2ncc(-c3ccc(-c4ccc(Br)cc4)cc3)cn2)cc1)NC(=O)c1ccc(C(C)(C)C)s1)C(=O)O [Compound 1293]
800 to 2500	CC[C@H]1CC[C@H](c2ccc(-c3cnc(-c4ccc(C[C@H](NC(=O)c5ccc(N(C)C)cc5)C(=O)O)cc4)nc3)cc2)CC1 [Compound 1380]
< 800	CCC[C@H]1CC[C@H](c2ccc(-c3cnc(-c4ccc(C[C@H](NC(=O)c5ccc(C(C)(C)C)s5)C(=O)N[C@H](C)C(=O)O)cc4)nc3)cc2)CC1 [Compound 1265]
2500 to 5000	CC[C@H]1CC[C@H](c2ccc(-c3cnc(-c4ccc(C[C@H](NC(=O)Cc5ccc(C(C)(C)C)s5)C(=O)N5CC(C(=O)O)C5)cc4)nc3)cc2)CC1 [Compound 1279]
< 800	CCCc1ccc(-c2ccc(-c3cnc(-c4ccc(C[C@H](NC(=O)c5ccc(S(C)(=O)=O)cc5)C(=O)N5CC(C(=O)O)C5)cc4)nc3)c(F)c2)cc1 [Compound 1404]
< 800	CCC[C@H]1CC[C@H](C2CCN(c3cnc(-c4ccc(CC(NC(=O)c5ccc(C(C)(C)C)s5)C(=O)NS(=O)(=O)CC(=O)OC)cc4)nc3)CC2)CC1 (stereo partly shown) [Compound 1543]
< 800	CCCc1ccc(-c2ccc(-c3cnc(-c4ccc(C[C@H](NC(=O)c5ccc(CC(C)C)s5)C(=O)N5CC(C(=O)O)C5)cc4)nc3)c(F)c2)cc1 [Compound 1405]
< 800	CC[C@H]1CC[C@H](c2ccc(-c3cnc(-c4ccc(C[C@H](NC(=O)c5ccc(S(C)(=O)=O)cc5)C(=O)O)cc4)nc3)cc2)CC1 [Compound 1379]
< 800	CCCC[C@H]1CC[C@H](c2ccc(-c3cnc(-c4ccc(C[C@H](NC(=O)c5ccc(C(C)(C)C)s5)C(=O)N[C@H](C)C(=O)O)cc4)nc3)cc2)CC1 [Compound 1317]

same assay, conditions: dose response of compound in presence of fixed concentration of GLP-1(9-36), GLP-1R CRE-bla CHO-K1 cells, read-out: EC20 GLP-1(9-36) PAM EC50

EC50 [nM]	Structure (SMILES)
< 800	CCCCCCCCOc1ccc(-c2cnc(-c3ccc(C[C@H](NC(=O)c4ccc(C(C)(C)C)s4)C(=O)N4CC[C@H](C(=O)O)C4)cc3)nc2)cc1 [Compound 764]
2500 to 5000	CCCCCCCOc1ccc(-c2cnc(-c3ccc(C[C@H](NC(=O)c4ccc(C(C)(C)C)s4)C(=O)N4CC(C(=O)N(C)C)C4)cc3)nc2)cc1 [Compound 974]
2500 to 5000	CCCCCCCOc1ccc(-c2cnc(-c3ccc(C[C@H](NC(=O)c4ccc(CCCC)cc4)C(=O)N4CC[C@H](C(=O)O)C4)cc3)nc2)cc1 [Compound 850]
800 to 2500	CCCCCCCOc1ccc(-c2cnc(-c3ccc(C[C@H](NC(=O)c4cnn(C(C)(C)C)c4)C(=O)N4CC(C(=O)O)C4)cc3)nc2)cc1 [Compound 1099]
< 800	CCCCCCCOc1ccc(-c2cnc(-c3ccc(C[C@H](NC(=O)c4ccc(C(C)(C)C)s4)C(=O)NC(C(=O)O)C4CCOCC4)cc3)nc2)cc1 (stereo partly shown) [Compound 396]
5000 to 10000	CCCCCCCOc1ccc(-c2cnc(-c3ccc(C[C@H](NC(=O)c4ccc(C(C)(C)C)s4)C(=O)N4CCC(NC)CC4)cc3)nc2)cc1 [Compound 464]
5000 to 10000	CC(C)CCSc1ccc(-c2cnc(-c3ccc(C[C@H](NC(=O)c4ccc(C(C)(C)C)cc4)C(=O)NCCC(=O)O)cc3)nc2)cc1 [Compound 681]
800 to 2500	CCCCCCCOc1ccc(-c2cnc(-c3ccc(C[C@H](NC(=O)c4ccc(C(C)(C)C)s4)C(=O)NCC4(C(=O)O)CCNCC4)cc3)nc2)cc1 [Compound 606]
< 800	CC[C@H]1CC[C@H](c2ccc(-c3cnc(-c4ccc(C[C@H](NC(=O)c5ccc(C6CC6)s5)C(=O)N5CC(C(=O)O)C5)cc4)nc3)cc2)CC1 [Compound 1154]
2500 to 5000	CCCCCCCOc1ccc(-c2cnc(-c3ccc(C[C@H](NC(=O)c4ccc(C(C)(C)C)s4)C(=O)O)cc3)c(C)c2)cc1 [Compound 946]
< 800	CCCCCCCOc1ccc(-c2cnc(-c3ccc(C[C@H](NC(=O)c4ccc(C(C)(C)C)s4)C(=O)N[C@@H](CC(=O)N(C)C)C(=O)O)cc3)nc2)cc1 [Compound 513]
< 800	CCCCCCCOc1ccc(-c2cnc(-c3ccc(C[C@H](NC(=O)c4ccc(C(C)(C)C)s4)C(=O)N[C@@H](CC(=O)O)C(N)=O)cc3)nc2)cc1 [Compound 525]
5000 to 10000	CCCCCCCOc1ccc(-c2cnc(-c3ccc(C[C@H](NC(=O)c4ccc(OCCC)cc4)C(=O)N[C@H](C)C(=O)O)cc3)nc2)cc1 [Compound 982]
2500 to 5000	CCCCCCCOc1ccc(-c2cnc(-c3ccc(C[C@H](NC(=O)c4ccc(C(C)(C)C)s4)C(=O)NCCCN(CC)CC)cc3)nc2)cc1 [Compound 970]
< 800	CC(C)(C)c1ccc(C(=O)N[C@@H](Cc2ccc(-c3ncc(-c4ccc(-c5ccccc5Cl)cc4F)cn3)cc2)C(=O)N2CC(C(=O)O)C2)s1 [Compound 1195]
800 to 2500	CCCCCCCOc1ccc(-c2cnc(-c3ccc(C[C@H](NC(=O)c4ccc(C(C)(C)C)s4)C(=O)N[C@H]4C[C@@H](C(=O)O)C4)cc3)nc2)cc1 [Compound 872]
2500 to 5000	C[C@@H](NC(=O)[C@H](Cc1ccc(-c2ncc(-c3ccc(Cl)cc3)cn2)cc1)NC(=O)c1ccc(C(C)(C)C)s1)C(=O)O [Compound 1029]
< 800	CCCCCCCOc1ccc(-c2cnc(-c3ccc(C[C@H](NC(=O)c4ccc(C(C)(C)C)s4)C(=O)N[C@H](Cc4ccccc4)C(=O)O)cc3)nc2)cc1 [Compound 647]

EC50 [nM]	Structure (SMILES)
< 800	C[C@@H](NC(=O)[C@H](Cc1ccc(-c2ncc(-c3ccc(C4=CCC(C)(C)CC4)cc3)cn2)cc1)NC(=O)c1ccc(C(C)(C)C)s1)C(=O)O [Compound 1150]
5000 to 10000	Cc1ccc(C(O)c2ccc(-c3cnc(-c4ccc(C[C@H](NC(=O)c5ccc(C(C)(C)C)s5)C(=O)N[C@H](C)C(=O)O)cc4)nc3)cc2)cc1 (stereo partly shown) [Compound 1030]
800 to 2500	CCCCCCCOc1ccc(-c2cnc(-c3ccc(C[C@H](NC(=O)c4ccc(OC)cc4)C(=O)N[C@H](C)C(=O)O)cc3)nc2)cc1 [Compound 817]
5000 to 10000	CCCCCCCOc1ccc(-c2cnc(-c3ccc(C[C@H](NC(=O)c4ccc(C(C)(C)C)s4)C(=O)N4CC(C(N)=O)C4)cc3)nc2)cc1 [Compound 972]
800 to 2500	CCCCCCCCOc1ccc(-c2cnc(-c3ccc(C[C@H](NC(=O)c4ccc(C(C)(C)C)s4)C(=O)NC(C(=O)O)C(O)c4ccccc4)cc3)nc2)cc1 (stereo partly shown) [Compound 926]
5000 to 10000	CCCCCCCOc1ccc(-c2cnc(-c3ccc(C[C@H](NC(=O)c4ccc(C(C)(C)C)cc4)C(=O)N[C@@H](CCCCN)C(=O)O)cc3)nc2)cc1 [Compound 492]
< 800	CCCCCCCOc1ccc(-c2cnc(-c3ccc(C[C@H](NC(=O)c4ccc(C(C)(C)C)s4)C(=O)N[C@@H](Cn4cccn4)C(=O)O)cc3)nc2)cc1 [Compound 594]
< 800	C[C@@H](NC(=O)[C@H](Cc1ccc(-c2ncc(-c3ccc(-c4ccc(OC(F)(F)F)cc4F)cc3)cn2)cc1)NC(=O)c1ccc(C(C)(C)C)s1)C(=O)O [Compound 1146]
800 to 2500	CCCCCCCOc1ccc(-c2cnc(-c3ccc(C[C@H](NC(=O)c4ccc(C(C)(C)C)cc4)C(=O)N[C@@H](CC(=O)NS(C)(=O)=O)C(=O)O)cc3)nc2)cc1 [Compound 511]
5000 to 10000	CCCCCCCOc1ccc(-c2cnc(-c3ccc(C[C@H](NC(=O)c4ccc(C(C)(C)C)cc4)C(=O)NC(CC(=O)O)c4ccccc4)cc3)nc2)cc1 (stereo partly shown) [Compound 539]
< 800	CCCCCCCOc1ccc(-c2cnc(-c3ccc(C[C@H](NC(=O)c4ccc(C(C)(C)C)cc4)C(=O)NCC(O)C(=O)O)cc3)nc2)cc1 (stereo partly shown) [Compound 554]
2500 to 5000	CCCCCCNc1ccc(-c2cnc(-c3ccc(C[C@H](NC(=O)c4ccc(C(C)(C)C)cc4)C(=O)NCCC(=O)O)cc3)nc2)cc1 [Compound 686]
< 800	CCCCCCCOc1ccc(-c2cnc(-c3ccc(CC(NC(=O)c4ccc(C(C)(C)C)s4)C(=O)N4CCC(C(=O)O)C4)cc3)nc2)cc1 (stereo not shown) [Compound 625]
800 to 2500	CCCC(C)CCOc1ccc(-c2cnc(-c3ccc(C[C@H](NC(=O)c4ccc(C(C)(C)C)cc4)C(=O)NCCC(=O)O)cc3)nc2)cc1 (stereo partly shown) [Compound 706]
5000 to 10000	COc1ccc(-c2cnc(-c3ccc(C[C@H](NC(=O)c4ccc(C(C)(C)C)s4)C(=O)N4CC(C(=O)O)C4)cc3)nc2)cc1 [Compound 784]
5000 to 10000	CC[C@H]1CC[C@H](c2ccc(N3CCN(c4ccc(C[C@H](NC(=O)c5ccc(C(C)(C)C)s5)C(=O)O)cc4)CC3)cc2)CC1 [Compound 1059, (S)-2-(5-(tert-butyl)thiophene-2-carboxamido)-3-(4-(4-(4-((1r,4r)-4-ethylcyclohexyl)phenyl)piperazin-1-yl)phenyl)propanoic acid]
< 800	CCCCCCCOc1ccc(-c2cnc(-c3ccc(C[C@H](NC(=O)c4ccc(C(C)(C)C)s4)C(=O)N4CCC[C@H]4C(=O)O)cc3)nc2)cc1 [Compound 328, (S)-1-((S)-2-(5-(tert-butyl)thiophene-2-carboxamido)-3-(4-(5-(4-(heptyloxy)-phenyl)pyrimidin-2-yl)phenyl)propanoyl)pyrrolidine-2-carboxylic acid]
